Results reported in US20060292213A1, “Enoximone formulations and their use in the treatment of PDE-III mediated diseases” (Myogen, Inc., priority 2004, published 2006).
In brackets after ≈: the same amount, converted by molar mass. Like-named read-outs stand apart in the source and are kept apart here.

How the values were obtained:
[1] = system: spontaneously hypertensive rats; assay: Anti-hypertensive activity, spontaneously hypertensive rats, single dose (Example 2); type: in vivo, rat; conditions: for blood pressure (mean arterial): vehicle 169+/−7.9
Procedure: Spontaneously hypertensive rats were divided into groups and treated with vehicle or a single dose of 10, 30 or 100 mg/kg of enoximone. Mean arterial blood pressure and heart rate were recorded before and at 15, 30, 45 and 60 minutes after treatment. Blood pressure decreased in all drug treatment groups.

perfused hindlimb = assay: Arteriolar resistance, pump perfused hindlimb preparation (Example 6); type: in vivo, dog
Source text: The pump perfused hindlimb preparation permits the in vivo determination of the direct vascular effects of a compound. Dogs were anesthetized and allowed to respire sponatenously. The branchial artery and vein were cannulated and a catheter was passed down the left carotid artery into the left ventricle. […]

Mongrel dogs = assay: Coronary blood flow, anesthetized mongrel dogs, electromagnetic flow probe (Example 5); type: in vivo, dog
Procedure: Mongrel dogs were anesthetized and given bolus injections of enoximone and coronary blood flow was measured using a Stratham electromagnetic flow probe, Model SP-7516-606-214, placed around the circumflex branch of the left coronary artery near its origin. The flow probe was connected to a Stratham Model SP2202 electromagnetic flow meter which was connected to a Grass Model 7P1 low level DC preamplifier. All recordings were made on a Grass Model 7B or […] polygraph.

[2] = system: spontaneously hypertensive rats; assay: Anti-hypertensive activity, cannulated conscious female spontaneously hypertensive rats (Example 1); type: in vivo, rat; conditions: 45 and 60 minute time points, 100 mg/kg and 30 mg/kg groups; statistically significant
Procedure: Female spontaneously hypertensive rats were anesthetized and cannulated. The end of the cannula was exteriorized through the skin for measurement of arterial blood pressure. Approximately 30 minutes after the rats regained consciousness, the experiment began. Mean blood pressure and heart rate were recorded 15 minutes prior to drug administration, at the time of administration, and 15, 30, 45 and 60 minutes following administration. Drug was administered at a variety of dosages. A statistically significant decrease in blood pressure of ˜42% was measured at the 45 and 60 minute time points for the 100 mg/kg and 30 mg/kg groups.

[3] = system: subjects displaying chronic stable angina; assay: Double blind placebo controlled cross over trial in chronic stable angina (Example 7); type: in vivo, human; conditions: single oral dose 75 mg
Procedure: A double blind placebo controlled cross over trial of enoximone was done with 20 subjects displaying chronic stable angina. Enoximone as a single oral dose (75 mg) was compared with placebo.

normal human volunteers = assay: Renal function and plasma volume in normal human volunteers (Example 4); conditions: single I.V. dose 2.5 mg/kg, then 200 mg t.i.d. for 5 days
anesthetized dogs = assay: Cardiorenal hemodynamics, i.v. infusion in anesthetized dogs (Example 3); type: in vivo, dog
[4] = system: human platelet aggregation; assay: Human platelet aggregation in platelet rich plasma, aggregometer (Example 8); type: cell-based; conditions: 5 min, PRP incubated 5 minutes at room temperature
Procedure: Substances which increase platelet cAMP levels are known to inhibit platelet aggregation. Blood was taken from human donors not on aspirin or taking any aspirin-containing substances (or other nonsteroidal anti-inflammatory drugs) for at least two weeks prior to donation. […] PRP was exposed only to plastic laboratory ware. All experiments were completed within 3 hours. PRP was incubated for 5 minutes at room temperature with enoximone prior to the addition of any aggregating agent. Aggregation was monitored by continuous recording of light transmittance in a Chrono-log dual-channel aggregometer (Chrono-log Corp.) in atotal volume of 0.5 ml PRP. Aggregating substances used were ADP (5 μM), collagen […] and arachidonic acid (2 μg/ml) (Chrono-log Corp.). Enoximone ([…]) inhibited platelet aggregation in a concentration dependent manner. […] It was also ruled out that enoximone was inhibiting aggregation by somehow inhibiting the metabolism of arachidonic acid as measured by HPLC and RIA.

PDE-III = conditions: cited from earlier work
men who suffer from ED = conditions: ED of psychogenic or organic etiology; cited from earlier work
[5] = system: patients with primary thrombocythemia and thrombocytosis; conditions: used to lower platelet counts; cited from earlier work

## CSc1ccc(C(=O)c2[nH]c(=O)[nH]c2C)cc1 [Enoximone, 1,3-Dihydro-4-methyl-5-[4-(methylthio)benzoyl]-2H-imidazol-2-one]
[1]; 45 minutes, 30 mg/kg, non-significant
  blood pressure (mean arterial): 151+/−9
[1]; 60 minutes, 30 mg/kg, non-significant
  blood pressure (mean arterial): 142+/−8
[1]; 60 minutes, 100 mg/kg, significant
  blood pressure (mean arterial): 100+/−9.7
[1]; all drug treatment groups (10, 30 or 100 mg/kg)
  blood pressure, change in words: decreased
[1]; all groups (10, 30 or 100 mg/kg)
  heart rates: unchanged
Perfused hindlimb; 0.3 mg/kg
  decrease in hind limb perfusion pressure: 11+/−2%
Perfused hindlimb; 3 mg/kg
  decrease in hind limb perfusion pressure: 25+/−2%
Mongrel dogs; bolus injection 0.1 mg/kg
  increase in coronary blood flow: 12+/−2%
Mongrel dogs; bolus injection 1 mg/kg
  increase in coronary blood flow: 41+/−6%
[2]
  decrease in blood pressure: ~42%
[3]; significantly longer than placebo
  total exercise duration, mean difference versus placebo: 22.8 s
[3]; trends in favor of enoximone
  time to onset of angina and development of significant ST-segment decrease, versus placebo: similar
Normal human volunteers
  renal function: no impairment
Anesthetized dogs; 30 μg/kg/min i.v. infusion
  blood pressure: decreasing
  cardiac contractile force: increasing
Anesthetized dogs; 100 μg/kg/min i.v. infusion
  glomerular filtration: unchanged
  increase in renal blood flow: 15-20%
  renal vascular resistance: measurable decreases
[4]; ADP (5 μM), read-out: IC50 for ADP induced aggregation
  IC50: 20.9 µg/mL (≈ 84.2 µM)
[4]; arachidonic acid (2 μg/ml), read-out: IC50 for arachidonic acid induced aggregation
  IC50: 0.24 µg/mL (≈ 0.967 µM)
[4]; collagen (1.0 mM), read-out: IC50 for collagen induced aggregation
  IC50: 36.3 µg/mL (≈ 146 µM)

## CCCc1nn(C)c2c(=O)[nH]c(-c3cc(S(=O)(=O)N4CCN(C)CC4)ccc3OCC)nc12 [Sildenafil, 5-[2-ethoxy-5-(4-methylpiperazin-1-ylsulphonyl)phenyl]-1-methyl-3-n-propyl-6,7-dihydro-1H-pyrazolo[4,3-d]pyrimidin-7-one]
PDE-III
  inhibition of PDE-III: negligible inhibition
Men who suffer from ED
  men with improved sexual function: about 70%

## interferon-α
[5]
  patients achieving a stable state of remission: approximately 50%
